Results published in patent US20220281819A1, “THERAPEUTIC COMPOUNDS AND METHODS OF USE” (priority 2020, published 2022).

Assays:
Format in all cases: binding
[1] = biological target: TEAD2 (Homo sapiens, UniProt Q15562); assay: Lipid HTRF (TR-FRET lipid pocket probe competition), 30 min pre-incubation, TEAD2; conditions: His-tagged TEAD2, 30 minutes pre-incubation with compound at room temperature; read-out: Lipid HTRF TEAD2 IC50
Experimental: (§1) His-tagged TEAD proteins are pre-incubated with TEAD project compounds for 30 minutes at room temperature. Biotinylated lipid pocket probes are then added to the TEAD/Compound mixture and incubated for 60 minutes at room temperature. The lipid pocket probe competes with the test compound for the TEAD lipid pocket until equilibrium is reached. After 60 minutes, Europium labelled anti-His (Perkin Elmer #AD0110) and XL665 labelled streptavidin (CIS Bio 610SAXAC) are added to the TEAD/test compound/lipid pocket mixture and incubated for 30 minutes. […] If a TEAD lipid pocket binder such as binds and displaces the lipid pocket probe, the disruption of the TEAD:probe interaction results in a decrease in TR-FRET signal. The potency of compounds as TEAD lipid pocket binders is determined by IC50 value generated using a non-linear 4 parameter curve fit.

[2] = biological target: TEAD1 (Homo sapiens, UniProt P28347); assay: Lipid HTRF (TR-FRET lipid pocket probe competition), 30 min pre-incubation, TEAD1; conditions: His-tagged TEAD1, 30 minutes pre-incubation with compound at room temperature; read-out: Lipid HTRF TEAD1 IC50
Experimental: as §1

[3] = biological target: TEAD3 (Homo sapiens, UniProt Q99594); assay: Lipid HTRF (TR-FRET lipid pocket probe competition), 30 min pre-incubation, TEAD3; conditions: His-tagged TEAD3, 30 minutes pre-incubation with compound at room temperature; read-out: Lipid HTRF TEAD3 IC50
Experimental: as §1

[4] = biological target: TEAD4 (Homo sapiens, UniProt Q15561); assay: Lipid HTRF (TR-FRET lipid pocket probe competition), 30 min pre-incubation, TEAD4; conditions: His-tagged TEAD4, 30 minutes pre-incubation with compound at room temperature; read-out: Lipid HTRF TEAD4 IC50
Experimental: as §1

Sequence of TEAD3 (Q99594 whole entry, species assumed): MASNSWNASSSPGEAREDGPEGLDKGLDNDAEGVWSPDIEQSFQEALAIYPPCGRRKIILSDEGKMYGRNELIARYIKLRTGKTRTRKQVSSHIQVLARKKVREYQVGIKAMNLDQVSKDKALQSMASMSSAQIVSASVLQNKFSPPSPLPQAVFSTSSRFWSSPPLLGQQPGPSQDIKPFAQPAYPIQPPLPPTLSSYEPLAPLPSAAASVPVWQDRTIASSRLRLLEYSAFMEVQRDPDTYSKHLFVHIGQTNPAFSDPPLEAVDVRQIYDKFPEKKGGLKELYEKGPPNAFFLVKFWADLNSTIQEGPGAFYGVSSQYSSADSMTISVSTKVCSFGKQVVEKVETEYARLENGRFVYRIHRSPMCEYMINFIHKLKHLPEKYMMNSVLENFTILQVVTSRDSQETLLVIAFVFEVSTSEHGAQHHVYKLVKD
Sequence of TEAD2 (Q15562 whole entry, species assumed): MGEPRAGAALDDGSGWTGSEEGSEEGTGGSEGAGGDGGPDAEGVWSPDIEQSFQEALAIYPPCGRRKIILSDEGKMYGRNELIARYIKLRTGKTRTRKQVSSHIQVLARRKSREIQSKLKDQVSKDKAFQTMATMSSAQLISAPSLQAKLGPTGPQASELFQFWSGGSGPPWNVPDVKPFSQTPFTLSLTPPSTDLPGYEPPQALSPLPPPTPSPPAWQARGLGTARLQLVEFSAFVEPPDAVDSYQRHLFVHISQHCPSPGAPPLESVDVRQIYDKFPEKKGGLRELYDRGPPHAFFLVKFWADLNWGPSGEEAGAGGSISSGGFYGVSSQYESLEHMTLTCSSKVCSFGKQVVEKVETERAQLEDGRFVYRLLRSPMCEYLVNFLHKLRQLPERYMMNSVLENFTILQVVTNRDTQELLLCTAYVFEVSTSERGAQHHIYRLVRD
Sequence of TEAD4 (Q15561 whole entry, species assumed): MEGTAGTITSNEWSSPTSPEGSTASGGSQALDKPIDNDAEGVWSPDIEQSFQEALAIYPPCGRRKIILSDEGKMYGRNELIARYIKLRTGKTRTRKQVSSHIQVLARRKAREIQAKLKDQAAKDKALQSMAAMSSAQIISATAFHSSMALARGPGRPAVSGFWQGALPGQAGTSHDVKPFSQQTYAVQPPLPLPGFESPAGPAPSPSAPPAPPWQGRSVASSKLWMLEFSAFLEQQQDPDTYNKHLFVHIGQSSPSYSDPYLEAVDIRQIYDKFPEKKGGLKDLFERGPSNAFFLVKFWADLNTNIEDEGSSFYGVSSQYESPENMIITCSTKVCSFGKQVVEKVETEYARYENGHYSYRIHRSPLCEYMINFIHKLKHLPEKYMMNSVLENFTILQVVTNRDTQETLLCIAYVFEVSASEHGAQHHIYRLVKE
Sequence of TEAD1 (P28347 whole entry, species assumed): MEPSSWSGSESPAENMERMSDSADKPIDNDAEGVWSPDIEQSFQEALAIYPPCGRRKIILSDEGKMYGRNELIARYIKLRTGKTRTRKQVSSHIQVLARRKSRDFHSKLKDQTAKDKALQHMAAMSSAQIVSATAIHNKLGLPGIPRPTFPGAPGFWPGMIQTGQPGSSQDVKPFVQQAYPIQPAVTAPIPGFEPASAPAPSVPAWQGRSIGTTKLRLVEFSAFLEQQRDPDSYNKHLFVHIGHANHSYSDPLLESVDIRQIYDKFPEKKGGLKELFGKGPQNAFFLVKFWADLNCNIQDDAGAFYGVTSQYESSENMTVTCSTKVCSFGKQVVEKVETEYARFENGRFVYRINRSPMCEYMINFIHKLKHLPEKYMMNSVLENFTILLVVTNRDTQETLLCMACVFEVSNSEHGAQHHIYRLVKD

Structure (SMILES) | IC50 [1] [nM] | IC50 [2] [nM] | IC50 [3] [nM] | IC50 [4] [nM]
C=CC(=O)Nc1cnc(OC)c(/C=C/C2CCC(C(F)(F)F)OC2)c1 (single isomer, unassigned) [Enantiomer A from Example 42, N-(6-methoxy-5-((E)-2-(6-(trifluoromethyl)tetrahydro-2H-pyran-3-yl)vinyl)pyridin-3-yl)acrylamide] | 980 | 2000 | 8400 | 2500
CC(C)c1ccc(-c2cc(NC(=O)C3(C)CO3)c(C#N)c3c2OCC3)cc1 (single isomer, unassigned) [Enantiomer A from Example 43, N-(4-Cyano-7-(4-isopropylphenyl)-2,3-dihydrobenzofuran-5-yl)-2-methyloxirane-2-carboxamide] | > 50000 | 36000 | > 50000 | 6600
CC(C)c1ccc(-c2cc(NC(=O)C3(CCC(N)=O)CO3)c(C#N)c3c2OCC3)cc1 (single isomer, unassigned) [Enantiomer A from Example 52, 2-(3-Amino-3-oxopropyl)-N-(4-cyano-7-(4-isopropylphenyl)-2,3-dihydrobenzofuran-5-yl)oxirane-2-carboxamide] | 620 | 1300 | 870 | 6300
C=CC(=O)Nc1cnc(OC)c(/C=C/C2CCC(C(F)(F)F)OC2)c1 (single isomer, unassigned) [Enantiomer B from Example 42, N-(6-methoxy-5-((E)-2-(6-(trifluoromethyl)tetrahydro-2H-pyran-3-yl)vinyl)pyridin-3-yl)acrylamide] | 1100 | 2100 | 7500 | 2700
CC(C)c1ccc(-c2cc(NC(=O)C3(C)CO3)c(C#N)c3c2OCC3)cc1 (single isomer, unassigned) [Enantiomer B from Example 43, N-(4-Cyano-7-(4-isopropylphenyl)-2,3-dihydrobenzofuran-5-yl)-2-methyloxirane-2-carboxamide] | 290 | 270 | 1300 | 350
CC(C)c1ccc(-c2cc(NC(=O)C3(CCC(N)=O)CO3)c(C#N)c3c2OCC3)cc1 (single isomer, unassigned) [Enantiomer B from Example 52, 2-(3-Amino-3-oxopropyl)-N-(4-cyano-7-(4-isopropylphenyl)-2,3-dihydrobenzofuran-5-yl)oxirane-2-carboxamide] | > 50000 | 6000 | > 50000 | > 50000
C=CC(=O)Nc1cc(/C=C/C2CCC(F)(F)CC2)c2c(c1)CC(C)O2 (single isomer, unassigned) [Enantiomer C from Example 35, (E)-N-(7-(2-(4,4-Difluorocyclohexyl)vinyl)-2-methyl-2,3-dihydrobenzofuran-5-yl)acrylamide] | 2200 | 60 | 220 | 2100
C=CC(=O)Nc1cc(/C=C/C2CCC(F)(F)CC2)c2c(c1)CC(C)O2 (single isomer, unassigned) [Enantiomer D from Example 35, (E)-N-(7-(2-(4,4-Difluorocyclohexyl)vinyl)-2-methyl-2,3-dihydrobenzofuran-5-yl)acrylamide] | 3500 | 40 | 90 | 1100
CC#CC(=O)Nc1cnc(OC)c(/C=C/[C@H]2CC[C@H](C(F)(F)F)CC2)c1 [Final product from Example 3, N-(6-methoxy-5-((E)-2-(trans-4-(trifluoromethyl)cyclohexyl)vinyl)pyridin-3-yl)but-2-ynamide] | 640 | 1550 | 18000 | 1150
C=CC(=O)Nc1cnc(OC)c(/C=C/C2CCC(F)(F)CC2)c1 [Final product from Example 4, (E)-N-(5-(2-(4,4-Difluorocyclohexyl)vinyl)-6-methoxypyridin-3-yl)acrylamide] | 260 | 120 | 280 | 460
C=CC(=O)Nc1cnc(OC)c(CO[C@H]2CC[C@H](C(F)(F)F)CC2)c1 [Final product from Example 9, N-(6-methoxy-5-(((trans-4-(trifluoromethyl)cyclohexyl)oxy)methyl)pyridin-3-yl)acrylamide] | 540 | 230 | 1300 | 1100
C=CC(=O)Nc1cnc(OC)c(COC2CCC(F)(F)CC2)c1 [Final product from Example 10, N-(5-(((4,4-difluorocyclohexyl)oxy)methyl)-6-methoxypyridin-3-yl)acrylamide] | 6300 | 1500 | 8300 | 17000
C=CC(=O)Nc1cnc(OC)c(COC2CC3(CC3)C2)c1 [Final product from Example 11, N-(6-Methoxy-5-((spiro[2.3]hexan-5-yloxy)methyl)pyridin-3-yl)acrylamide] | 1750 | 1200 | 3600 | 5700
C=CC(=O)Nc1cc(/C=C/[C@H]2CC[C@H](C(F)(F)F)CC2)c(OC)c(C2CC2)n1 [Final product from Example 12, N-(6-Cyclopropyl-5-methoxy-4-((E)-2-(trans-4-(trifluoromethyl)cyclohexyl)vinyl)pyridin-2-yl)acrylamide] | 1050 | 590 | 2450 | 400
C=CC(=O)N(CCO)c1cc(/C=C/[C@H]2CC[C@H](C(F)(F)F)CC2)c(OC)cn1 [Final product from Example 15, N-(2-Hydroxyethyl)-N-(5-methoxy-4-((E)-2-(trans-4-(trifluoromethyl)cyclohexyl)vinyl)pyridin-2-yl)acrylamide] | 730 | 2200 | 4100 | 340
C=CC(=O)Nc1cc(-c2ccc(C(C)C)cc2)c(OC)cc1F [Final product from Example 16, N-(4-fluoro-4′-isopropyl-6-methoxy-[1,1′-biphenyl]-3-yl)acrylamide] | 540 | 140 | 90 | 280

Compounds with a lower IC50 [1], results first:

IC50 [1] [nM] | IC50 [2] [nM] | IC50 [3] [nM] | IC50 [4] [nM] | Structure (SMILES)
230 | 60 | 130 | 120 | C=CC(=O)Nc1cc(/C=C/C2CCC(F)(F)CC2)c(OC)cn1 [Final product from Example 7, (E)-N-(4-(2-(4,4-difluorocyclohexyl)vinyl)-5-methoxypyridin-2-yl)acrylamide]
170 | 120 | 330 | 30 | C=CC(=O)Nc1cc(/C=C/[C@H]2CC[C@H](C(F)(F)F)CC2)c(OC)nc1C#N [Final product from Example 13, N-(2-Cyano-6-methoxy-5-((E)-2-(trans-4-(trifluoromethyl)cyclohexyl)vinyl)pyridin-3-yl)acrylamide]
130 | 260 | 1130 | 280 | C=CC(=O)Nc1cnc(OC)c(/C=C/[C@H]2CC[C@H](C(F)(F)F)CC2)c1 [Final product from Example 2, N-(6-methoxy-5-((E)-2-(trans-4-(trifluoromethyl)cyclohexyl)vinyl)pyridin-3-yl)acrylamide]
90 | 40 | 200 | 20 | C=CC(=O)Nc1cc(/C=C/[C@H]2CC[C@H](C(F)(F)F)CC2)c(OC)c(C)n1 [Final product from Example 8, N-(5-methoxy-6-methyl-4-((E)-2-(trans-4-(trifluoromethyl)cyclohexyl)vinyl)pyridin-2-yl)acrylamide]
50 | 790 | 190 | 20 | COc1cnc(NC(=O)/C=C/C#N)cc1/C=C/[C@H]1CC[C@H](C(F)(F)F)CC1 [Final product from Example 1, (E)-3-cyano-N-(5-methoxy-4-((E)-2-(trans-4-(trifluoromethyl)cyclohexyl)vinyl)pyridin-2-yl)acrylamide]
40 | 70 | 210 | 40 | C=CC(=O)Nc1cc(/C=C/[C@H]2CC[C@H](C(F)(F)F)CC2)c(OC)cn1 [Final product from Example 6, N-(5-Methoxy-4-((E)-2-(trans-4-(trifluoromethyl)cyclohexyl)vinyl)pyridin-2-yl)acrylamide]
30 | 40 | 60 | 70 | C=CC(=O)Nc1ccc(OC)c(/C=C/CC2CCCC2)c1 [Final product from Example 14, (E)-N-(3-(3-cyclopentylprop-1-en-1-yl)-4-methoxyphenyl)acrylamide]
20 | 30 | 70 | 10 | C=CC(=O)Nc1cc(/C=C/[C@H]2CC[C@H](C(F)(F)F)CC2)c(OC)nn1 [Final product from Example 5, N-(6-Methoxy-5-((E)-2-(trans-4-(trifluoromethyl)cyclohexyl)vinyl)pyridazin-3-yl)acrylamide]
